# How the values were obtained:
# [1] = system: S. aureus VRS1 (VRSA) exponential and persister cells; assay: S. aureus persister cell and time-kill assays (VRS1); format: cell-based, Staphylococcus aureus; conditions: approximately 1 × 10^7 CFU
# Experimental: 305 Minimal inhibitory concentration (MIC) assay
# We made serial dilutions of 10×
# We determined the MIC using OD600
# Accordingly, we added 150 mM NaCl,
# 319 established protocol (5).
# 323 aureus VRS1) in PBS. To assess the killing kinetics of CIT-8 in persister cells, we added 1 ml of
# 324 cell suspension to the wells of a 2-ml deep-well assay block (Cat no. 3960, Corning, NY, USA)
# We also included ciprofloxacin (at 10 μg/ml) for S.
# 326 aureus MW2 and linezolid (100 μg/ml) for S. aureus VRS1 as antibiotic controls. Additionally,
# 327 we included bithionol (at 10 μg/ml) as a positive control, known for its ability to kill stationary
# 328 phase persister cells (6). We incubated the plates at 37°C, with shaking at 225 rpm. At specific
# 329 times (0, 15, 30, 60, and 120 min), we collected 10 μl samples, diluted them serially, and then
# 330 plated them on tryptic soy agar (TSA) (BD Difco, NJ, USA) plates. We incubated the TSA plates
# 331 for 18 hours at 37°C for colony counting. We performed these experiments in duplicate. As a
# 332 comparison, we prepared the exponential cells of S. aureus MW2 and VRS1 in PBS and analyzed
# 333 their killing kinetics in the same manner as described for persister cells.
# [2] = system: S. aureus MW2 24 h established biofilm; conditions: crystal violet, 24 h established biofilm, 24 h treatment
# Experimental: 346 plated onto TSA plates, and incubated plates at 37°C overnight. The next day, we counted the
# 347 viable bacterial colonies.
# (§1) We used TSB medium containing
# (§2) 356 bacteria with water as the positive control, while TSB media with sterile water served as the
# (§3) 357 negative control. After incubation, we carefully removed the TSB medium and washed the wells
# (§4) 358 with PBS (Gibco, MD, USA) to remove loosely attached planktonic cells. We quantified the
# (§5) 359 biomass by staining the biofilms with crystal violet following an established protocol and
# (§6) 360 quantitated the concentration of peptide that inhibits 50% of biofilm formation (MBIC50)(8). We
# (§7) 361 measured the live cell count of the biofilms using XTT dye [2,3-bis(2-methyloxy-4-nitro-5-
# 362 sulfophenyl)-2H-tertazolium-5-carboxanilide] (ATCC, VA, USA). We calculated the percentage
# 363 of biofilm growth by normalizing to biofilm growth in wells containing bacteria without peptide
# 366 Disruption of S. aureus MW2 established biofilms
# 367 We evaluated the ability of the citropin 1.1-derived peptides to disrupt established biofilms
# 368 following an established protocol with modifications (5). We prepared exponential cultures of S.
# 369 aureus MW2 (adjusted to 1 × 10^6 CFU/ml) in TSB medium (supplemented with 0.2% glucose)
# 370 from overnight grown cultures. We added 100 µl of bacterial culture to flat-bottomed 96-well
# 371 polystyrene microtiter plates (Cat no. 3595, Corning, NY, USA). We then incubated the plates at
# 372 37°C for 24 hours in static conditions to allow biofilm formation. After incubation, we carefully
# 373 pipetted out the TSB medium and washed the wells with PBS (Gibco, MD, USA) to remove
# 374 loosely attached planktonic cells. We treated the established biofilms in each well with 10 µl of
# 375 serially diluted 10× peptide solution, followed by the addition of 90 μl TSB medium
# 376 (supplemented with 0.2% glucose). We incubated the plates for another 24 h at 37°C before
# 377 processing biomass and live-cell contents. We calculated the concentration of peptide that disrupts
# 378 50% of established biofilms (MBEC50).
# [3] = system: S. aureus MW2 biofilm formation; conditions: crystal violet, 24 h
# Experimental: 349 Prevention of S. aureus MW2 biofilm formation
# 350 We evaluated the ability of the citropin 1.1-derived peptides to inhibit biofilm formation
# 351 following an established protocol with modifications (5). In short, we prepared exponential
# 352 cultures of S. aureus MW2 (adjusted to OD600 = 0.01) in TSB medium (supplemented with 0.2%
# 353 glucose) from overnight cultures. We added 90 µl of the bacterial culture to 10 µl of serially diluted
# 354 10× peptide solution in flat-bottomed 96-well polystyrene microtiter plates (Cat no. Corning 3595,
# as §1, §2, §3, §4, §5, §6, §7
# 362 sulfophenyl)-2H-tertazolium-5-carboxanilide] (ATCC, VA, USA).
# [4] = system: MRSA (S. aureus MW2) biofilm; assay: Biofilm viability assay on solid support (MW2); format: cell-based, Staphylococcus aureus; conditions: 40 μg/mL, 24 h established biofilm
# S. aureus MW2 membrane = assay: Propidium iodide-based membrane permeability; format: cell-based, Staphylococcus aureus; conditions: S. aureus MW2, 60 minutes
# Experimental: 484 min at room temperature in the dark based on a previously established protocol (8). We added 90
# 485 µl of the dye/bacteria mixture to 10 μl of serially diluted 10× peptide concentration in black, 96-
# 486 well plates (Cat. no. 3904, Corning, NY, USA) and incubated the plates for 1 hour at room
# 487 temperature. We measured the fluorescence with excitation and emission wavelengths of 485 nm
# 488 and 525 nm, respectively in endpoint assay mode using a SpectraMax i3x (Molecular Devices,
# 489 CA, USA) fluorescence reader.
# 490 Propidium iodide-based membrane permeability
# 491 We used a propidium iodide (Thermo Fisher Scientific, MA, USA) fluorescence-based
# 492 bacterial permeation assay to establish membrane-oriented interactions with the designed peptides
# 493 based on a previously established protocol (8). We prepared exponential phase S. aureus MW2
# 494 bacteria and diluted to OD600 = 0.4 in PBS. We added PI dye (final concentration = 2 µM) to the
# 495 bacteria in 1:10 serial dilutions in black, 96-well plates (Cat. no. 3904, Corning, NY, USA) and
# 496 incubated the plates for 1 hour at room temperature. We then measured the fluorescence with an
# 497 excitation wavelength of 584 nm and an emission wavelength of 620 nm in endpoint assay mode
# 498 using a SpectraMax i3x (Molecular Devices, CA, USA) fluorescence reader.
# 501 To determine the ATP leakage potential of the peptides, we employed a luciferase-based
# 502 assay(18). In brief, we washed exponential phase of S. aureus MW2 bacteria three times with PBS
# 503 (pH 7.4) and adjusted the washed cells to OD600 = 0.4 in PBS. Following treatment of the bacteria
# 504 with 32 µg/ml of CIT-8 peptide at 37°C for 30 min, we centrifuged the cells at 14,000× g for 5
# 505 min. We transferred 50 µl of each supernatant fraction to black, clear-bottom, 96-well plates
# [5] = system: VRSA (S. aureus VRS1) biofilm; assay: Biofilm viability assay on solid support (VRS1); format: cell-based, Staphylococcus aureus; conditions: 40 μg/mL, 24 h established biofilm
# S. aureus JE2 = system: S. aureus JE2; parameters: method as in PMID 31336137; conditions: S. aureus JE2 (USA300 isolate); cited from earlier work
# Excerpt: In MRSA, antimicrobial resistance is linked to life-threatening infections, such as pneumonia, sepsis, and endocarditis ([48]). The situation is further complicated by the presence of S. aureus bacteria in alternative physiological states such as biofilms and persister cells, which are often neglected in early antimicrobial drug discovery stages even though they contribute substantially to chronic, relapsing infections ([49]).
Molecule,Time to elimination of exponential and persister cells of VRSA [1] [min],MBEC50 (50% of biomass disrupted) [2] [µg/mL],MBIC50 (biomass reduced by 50%) [3] [µg/mL],Reduction of MRSA biofilm burden on solid membrane [4] [logs],Propidium iodide fluorescence (membrane permeation) (S. aureus MW2 membrane),Reduction of VRSA biofilm burden on solid membrane [5] [logs],MIC (S. aureus JE2) [µg/mL]
"CC[C@H](C)[C@H](NC(=O)CN)C(=O)NCC(=O)N[C@@H](C)C(=O)N[C@H](C(=O)N[C@@H](CC(C)C)C(=O)N[C@@H](CCCCN)C(=O)N[C@H](C(=O)N[C@@H](CC(C)C)C(=O)N[C@H](C(=O)N[C@H](C(=O)NCC(=O)N[C@@H](CC(C)C)C(=O)N1CCC[C@H]1C(=O)N[C@@H](C)C(=O)N[C@@H](CC(C)C)C(=O)N[C@H](C(=O)N[C@@H](CO)C(=O)N[C@@H](Cc1c[nH]c2ccccc12)C(=O)N[C@H](C(=O)N[C@@H](CCCCN)C(=O)N[C@@H](CCCNC(=N)N)C(=O)N[C@@H](CCCCN)C(=O)N[C@@H](CCCNC(=N)N)C(=O)N[C@@H](CCC(N)=O)C(=O)N[C@@H](CCC(N)=O)C(N)=O)[C@@H](C)CC)[C@@H](C)CC)[C@@H](C)O)[C@@H](C)O)C(C)C)C(C)C [melittin, reference compound]",≤ 120,2.3,4.8,1.85,elevated fluorescence levels,3.9,
citropin 1.1,,,,,,,32

# Reference: paper PMC12165799, “Antimicrobial peptide developed with machine learning sequence optimization targets drug resistant Staphylococcus aureus in mice” (The Journal of Clinical Investigation, 2025)
